Test results as given in paper PMC5062470, “The mGluR2 positive allosteric modulator, SAR218645, improves memory and attention deficits in translational models of cognitive symptoms associated with schizophrenia” (Scientific Reports, 2016).

Assays:
C57BL/6J mice = test: Amphetamine-induced disruption of latent inhibition (LI); type: in vivo; settings: dose-range 0.1–10, po
Procedure: The procedure was based on that described by Lipina et al.[39]. Briefly, male C57BL/6J mice (20–30 g, 6–8-week-old) were water restricted and trained to drink in an operant chamber for 15 min over 5 daily sessions. The LI procedure was completed in the following stages each given 24 h apart: (a) Pre-exposure: The preexposed (PE) animals received 40, 85-dB white noise presentations in the chamber for 50 min; the non-preexposed (NPE) animals were confined to the chamber for the same period but without the presence of the tone. (b) Conditioning: All mice received 2 tone-shock (1 s, 0.37 mA) pairings in the chamber. (c) Test: Each mouse was placed in the chamber and allowed to drink. After completing 75 licks, the white noise was presented and lasted until the mouse completed 100 licks. For data analysis, the time during 50–75 licks (A period) and the time to complete licks 76–100 (after tone onset; B period) was calculated into a suppression ratio defined as A/(A+B). A low suppression ratio indicates a stronger suppression of drinking. LI is defined as an […] in suppression ratio (little or no suppression), whereas a shorter time to complete licks 76–100 of the pre-exposed mice compared to the non-pre-exposed mice. Data (i.e. suppression ratio) were analyzed using the Friedman nonparametric two-way ANOVA model. […]

human mGluR8 = target: T1, human mGluR8 (Homo sapiens, UniProt O00222); test: Multispan Allosteric Profiling panel, Ca2+ (Gqi5); type: cell-based
T1 construct: host or cells: HEK293 co-expressing Gqi5

Swiss mice = test: Amphetamine-induced locomotor hyperactivity; type: in vivo
Procedure: An actimeter device consisting of a cylinder (20 cm diameter, 9.5 cm height, Apelex, France) equipped with two perpendicular light beams located 1.5 cm above the floor was used. Mice from the transgenic batches (DAT^−/− and NMDA Nr1^neo−/−) were orally pretreated with either SAR218645 or vehicle and individually isolated in boxes for a period of 60 min. Animals were then placed in the actimeter device and locomotor activity (number of interrupted light beams) was recorded for a period of 30 or 60 min. Mice in which the expression of the dopamine transporter (DAT) was knocked out (i.e., the DAT^−/− mouse) have been proposed as a reliable model of the positive symptoms of schizophrenia. In these mice, dopamine levels in the synapse are dramatically elevated and these animals are hyperactive and agitated in behavioral tests. […] Immediately following amphetamine challenge, 30 min after MK-801 challenge, mice were placed in the actimeter devices and locomotor activity was recorded for a period of 30 (DAT^−/−) or 60 (NMDA Nr1^neo−/−) min.
Statistical analyses were performed using SAS V8.2 software (SAS Institute, Cary, NC, USA). The number of light beam breaks (motility count) recorded for 30 or 60 min were analyzed using one-way ANOVAs using a fixed factor of challenge or genotype and complementary post hoc (Newman-Keuls) tests were performed. […]

OF1 mice = test: Pentylenetetrazol (PTZ) seizure threshold test; type: in vivo; settings: dose-range 10–30, po
Procedure: The seizure threshold was determined by the infusion of 8 mg/mL of PTZ at a rate of 0.7 mL/min via a flexible plastic catheter into the tail vein of freely moving OF1 mice (22–24 g) using an infusion pump. The convulsant dose for each endpoint was calculated in mg/kg PTZ. SAR218645 (10 and 30 mg/kg, po) and diazepam (3 mg/kg, ip) were administered 60 or 30 min prior to the beginning of PTZ infusion, respectively. One-way ANOVA was used to assess overall effect of treatment, and Dunnett’s post-hoc was used to compare differences between treatment groups. Ten to fifteen animals per group were used.

NMDA Nr1neo−/− mice = test: Spontaneous locomotor hyperactivity of transgenic mice; type: in vivo
Procedure: (§1) An actimeter device consisting of a cylinder (20 cm diameter, 9.5 cm height, Apelex, France) equipped with two perpendicular light beams located 1.5 cm above the floor was used. Mice from the transgenic batches (DAT^−/− and NMDA Nr1^neo−/−) were orally pretreated with either SAR218645 or vehicle and individually isolated in boxes for a period of 60 min. Animals were then placed in the actimeter device and locomotor activity (number of interrupted light beams) was recorded for a period of 30 or 60 min. Mice in which the expression of the dopamine transporter (DAT) was knocked out (i.e., the DAT^−/− mouse) have been proposed as a reliable model of the positive symptoms of schizophrenia. In these mice, dopamine levels in the synapse are dramatically elevated and these animals are hyperactive and agitated in behavioral tests. NMDA Nr1^neo−/− mice express only 5 to 10% of normal levels of the NR1 subunit of the NMDA receptor[33], thus mimicking a hypo-glutamatergic state. […] As such, they have been proposed as an animal model of schizophrenia. […] As such, in our present experiments, a relatively moderate dose of amphetamine (2 mg/kg ip) or MK-801 (0.2 mg/kg, ip) was used to selectively induce similar hyperactivity, with no noticeable appearance of stereotyped behaviors in normal mice. For amphetamine or MK-801 antagonism experiments, male Swiss mice (20–30 g) were orally pretreated with SAR218645, haloperidol or vehicle, immediately individually isolated in a Plexiglas box, followed 30 min later by administration of vehicle, amphetamine or MK-801. Immediately following amphetamine challenge, 30 min after MK-801 challenge, mice were placed in the actimeter devices and locomotor activity was recorded for a period of 30 (DAT^−/−) or 60 (NMDA Nr1^neo−/−) min.
(§2) Statistical analyses were performed using SAS V8.2 software (SAS Institute, Cary, NC, USA). The number of light beam breaks (motility count) recorded for 30 or 60 min were analyzed using one-way ANOVAs using a fixed factor of challenge or genotype and complementary post hoc (Newman-Keuls) tests were performed. Five to nine animals per group were used.

DAT−/− mice = test: as above; type: in vivo
Procedure: as §1, §2

human mGluR2 = human mGluR2 (Homo sapiens, UniProt Q14416); test: Forskolin-stimulated cAMP accumulation in HEK293 cells; type: cell-based; design: expressed in transfected cells; host or cells: HEK293 Flp-in-T-REx (inducible), co-expressing Gα16
Procedure: Recombinant human mGluR2 receptor and the excitatory amino acid transporter SLCA1 were stably expressed in a doxycycline inducible HEK293 Flp-in-T-Rex cell line. […] Cells were treated with the compounds, and cAMP production was induced with 1 μM Forskolin for 5 min. cAMP was detected using the CisBio HTRF detection kit. […] EC50 were calculated using 4-parameter curve fitting.

Sprague-Dawley rats = test: Catalepsy test; type: in vivo; settings: 30, po
Procedure: Male Sprague-Dawley rats weighing 225–234 g were used. Each animal was placed such that their forepaws rested on a wooden dowel (1 × 18 cm) mounted horizontally 9 cm from the floor and 4 cm from one end of a white translucent plastic box (26 × 20 × 15 cm). The amount of time each rat spent with at least one forepaw on the bar was determined, for a maximum period of 540 s. This procedure was repeated three times. White noise was used during the acclimation and test periods to minimize the effects of outside noises. SAR218645 was administered alone at a dose of 30 mg/kg po. Haloperidol (1 mg/kg ip) was used alone and in co-administration with SAR218645 (1, 3, and 10 mg/kg, po). Statistics consisted of using a one-way ANOVA, followed by a post-hoc Dunnett’s test for individual comparisons. Ten animals per group were used.

T1 sequence (O00222 34-908): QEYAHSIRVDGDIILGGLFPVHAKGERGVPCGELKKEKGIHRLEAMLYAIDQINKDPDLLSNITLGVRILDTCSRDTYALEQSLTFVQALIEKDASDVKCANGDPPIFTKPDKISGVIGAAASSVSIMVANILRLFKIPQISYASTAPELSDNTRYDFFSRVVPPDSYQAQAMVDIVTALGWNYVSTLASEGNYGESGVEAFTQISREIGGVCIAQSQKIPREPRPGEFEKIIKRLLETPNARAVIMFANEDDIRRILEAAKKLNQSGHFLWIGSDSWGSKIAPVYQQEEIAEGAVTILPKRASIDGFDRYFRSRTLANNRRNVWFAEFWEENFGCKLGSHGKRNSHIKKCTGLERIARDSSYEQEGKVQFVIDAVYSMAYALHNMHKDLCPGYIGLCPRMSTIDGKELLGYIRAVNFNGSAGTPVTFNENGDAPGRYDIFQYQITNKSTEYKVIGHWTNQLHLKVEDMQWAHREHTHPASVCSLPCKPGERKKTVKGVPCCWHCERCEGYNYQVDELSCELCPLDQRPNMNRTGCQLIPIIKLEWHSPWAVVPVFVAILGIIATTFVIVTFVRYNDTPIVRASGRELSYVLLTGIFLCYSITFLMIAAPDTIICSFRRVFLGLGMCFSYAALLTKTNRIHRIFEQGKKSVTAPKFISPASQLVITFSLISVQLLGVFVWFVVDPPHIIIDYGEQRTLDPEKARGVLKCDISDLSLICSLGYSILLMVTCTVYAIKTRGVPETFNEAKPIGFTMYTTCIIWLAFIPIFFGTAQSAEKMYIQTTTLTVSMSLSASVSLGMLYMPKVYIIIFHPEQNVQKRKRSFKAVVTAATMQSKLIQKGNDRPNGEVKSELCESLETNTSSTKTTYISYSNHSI
human mGluR2, sequence (Q14416 19-872): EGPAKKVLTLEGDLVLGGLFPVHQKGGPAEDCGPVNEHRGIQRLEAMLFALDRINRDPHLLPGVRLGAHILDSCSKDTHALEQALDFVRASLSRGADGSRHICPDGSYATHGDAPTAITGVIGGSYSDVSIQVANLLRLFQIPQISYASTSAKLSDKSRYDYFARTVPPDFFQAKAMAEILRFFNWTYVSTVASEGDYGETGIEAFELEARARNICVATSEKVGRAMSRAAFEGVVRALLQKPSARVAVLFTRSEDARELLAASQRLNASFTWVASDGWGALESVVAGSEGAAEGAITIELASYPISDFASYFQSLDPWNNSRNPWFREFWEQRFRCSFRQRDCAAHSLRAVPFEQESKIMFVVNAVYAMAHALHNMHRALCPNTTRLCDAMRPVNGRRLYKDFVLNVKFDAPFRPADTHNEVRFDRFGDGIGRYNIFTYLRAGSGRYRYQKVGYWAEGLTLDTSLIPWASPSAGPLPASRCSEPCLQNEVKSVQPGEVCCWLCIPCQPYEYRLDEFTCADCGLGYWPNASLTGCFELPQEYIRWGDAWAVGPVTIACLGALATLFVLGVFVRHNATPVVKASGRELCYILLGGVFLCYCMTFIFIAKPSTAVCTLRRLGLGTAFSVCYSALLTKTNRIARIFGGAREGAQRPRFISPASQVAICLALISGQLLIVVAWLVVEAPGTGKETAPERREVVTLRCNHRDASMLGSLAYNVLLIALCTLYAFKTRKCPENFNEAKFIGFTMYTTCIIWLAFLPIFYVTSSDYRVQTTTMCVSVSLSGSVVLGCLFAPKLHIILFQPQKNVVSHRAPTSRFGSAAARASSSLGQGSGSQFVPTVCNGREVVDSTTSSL

CC1(C)CCc2cc(OC[C@@H]3Cn4ccc(=O)nc4O3)ccc21 [SAR218645, (S)-2-(1,1-dimethyl-indan-5-yloxymethyl)-2,3-dihydro-oxazolo[3,2-a]pyrimidin-7-one]
Minimal active dose (C57BL/6J mice): 1 mg/kg | effect on glutamate-induced activation (human mGluR8; 10 μM SAR218645): no effect | calcium response to compound alone (human mGluR8; SAR218645 alone): did not elicit a calcium response | effect on locomotor activity (Swiss mice; amphetamine 2 mg/kg ip, SAR218645 po): no effects | Minimal active dose (Swiss mice; dose-range 0.1–10, po, Swiss mice): >10 mg/kg | Minimal active dose (OF1 mice): >30 mg/kg | effect on locomotor activity (NMDA Nr1neo−/− mice; NMDA Nr1neo−/− mice, SAR218645 po): no effects | Minimal active dose (NMDA Nr1neo−/− mice; dose-range 1–10, po): >10 mg/kg | effect on locomotor activity (DAT−/− mice; DAT−/− mice, SAR218645 po): no effects | Minimal active dose (DAT−/− mice; dose-range 3–10, po): >10 mg/kg | EC50 (human mGluR2): 159 nM | Minimal active dose (Sprague-Dawley rats): >30 mg/kg
